# Tested on: bovine viral diarrhea virus (BVDV)
# Assay: Hypericin-Luciferase inactivation of BVDV spiked into human red blood cell concentrate, TCID50 titration (CPE)
# Type: cell-based
# Conditions: for Unwashed Titer / Unwashed VRF / Washed Titer / Combined VRF / Washed VRF: no luciferase system; for Unwashed Titer: RT 2 h dark; for Unwashed VRF / Washed VRF: vs RBC control; for Combined VRF: washed sample vs unwashed RBC control
# Procedure: Ten different combinations of Dulbecco's modified eagle medium without calcium and magnesium (DMEM (—Ca++, —Mg++)), RBCC, virus, hypericin, luciferin, ATP and luciferase were prepared to all contain equivalent titers of BVDV calculated to be 6.48 log 10TCID50/mL based on the titer of the original virus stock. The concentrations of hypericin tested were 0, 40 and 200 μg/mL. Luciferase was tested at 0, 0.8 and 4.0 μM. Luciferin and ATP were present at 80 and 800 μM respectively when luciferase was present and absent in the absence of luciferase.
# The components were mixed and incubated at room temperature (RT) for 2 hours in the dark followed by titration of unwashed and washed samples as previously described. Washing rows of wells with dilutions 1 and 2 was performed 3 days post-infection. Final cytopathic effects (CPEs) were read 10 days post-infection.
# (§1) Eleven different combinations of DMEM (—Ca++, —Mg++), RBCC, virus, hypericin, luciferin, adenosine triphosphate (ATP) and luciferase were prepared to all contain equivalent titers of BVDV calculated to be 6.48 log 10TCID50/mL (logs) based on the titer of the original virus stock. The concentrations of hypericin tested were 10, 20 and 40 μg/mL. Luciferase was tested at 0.16, 0.32 and 0.8 μM. Luciferin and ATP were present at 80 and 800 μM, respectively.
# The components were mixed and incubated at RT for 2 hours in the dark followed by titration of unwashed and washed samples as previously described. Washing of rows of wells with dilutions 1 and 2 was performed […] post-infection. Final CPE were read 10 days post-infection.
# as §1, with “Ten” for “Eleven”, “log10 TCID50/mL” for “log 10TCID50/mL”, “40, 80” for “10, 20”, “120” for “40”
# The compounds were mixed and incubated at RT for 2 hours in the dark followed by titration of unwashed and washed samples as previously described. Washing rows of wells with dilutions 1 and 2 was performed 2 days post-infection. Final CPEs were read 10 days post-infection.
# [1] = Ex 1 HH-LN: hypericin 200 μg/mL
# [2] = Ex 1 HH-LN: hypericin 200 μg/mL, washed
# [3] = Ex 1 HL-LN: hypericin 40 μg/mL, washed
smiles,measurement,setting,value
"Cc1cc(O)c2c(=O)c3c(O)cc(O)c4c5c(O)cc(O)c6c(=O)c7c(O)cc(C)c8c1c2c(c34)c(c78)c65 [Hypericin, hypericin]",Unwashed Titer,[1],3.10 log10TCID50/mL
same,Unwashed VRF,[1],3.25 log TCID50
same,Washed Titer,[2],2.48 log10TCID50/mL
same,Combined VRF,[1],3.87 log TCID50
same,Washed VRF,[2],1.50 log TCID50
same,Unwashed Titer,Ex 1 HL-LN: hypericin 40 μg/mL,3.48 log10TCID50/mL
same,Unwashed VRF,Ex 1 HL-LN: hypericin 40 μg/mL,2.87 log TCID50
same,Washed Titer,[3],<2.34 log10TCID50/mL
same,Combined VRF,Ex 1 HL-LN: hypericin 40 μg/mL,>4.01 log TCID50
same,Washed VRF,[3],>1.64 log TCID50
same,"VRFs, unwashed samples","Example 1, all hypericin treated unwashed samples, low (40 μg/mL) and high (200 μg/mL) doses",~3 logs
same,combined VRFs,"Example 3, hypericin 40 μg/mL, all levels of luciferase, washed",> 3.51 logs
same,"VRF, washed samples","Example 3, hypericin dose of 40 μg/mL, all levels of luciferase, washed, complete inactivation/elimination",> 1.14 logs
same,optimal dose of hypericin for BVDV,"summary of Examples 1-3, with different doses of luciferase",40 µg/mL
